Data as given in PubChem BioAssay AID248 (DTP/NCI, 2004).
“And” between values parts separate entries of the source, which are not always exact repeats. Identical values can stand only once. Toxic doses and inconclusive results are not listed. Cut-off read from the data, not from the text of the source: active = T/C of 150% or more; inactive = T/C below 125%.

Test system: L1210 leukemia ip in BDF1 mice, survival T/C
Experiment: NCI In Vivo Anticancer Drug Screen. Data for tumor model L1210 Leukemia (intraperitoneal) in B6D2F1 (BDF1) mice
Conditions: endpoint: mean survival time, higher = longer survival
In short: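 Tumor was transplanted into mice, which were then dosed with test compound or vehicle alone. Survival was recorded for each group, and the treated figure was expressed relative to the control figure.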

[1] = dose: 100.0 mg/kg/injection, schedule: Q04DX003 (ip), vehicle: Klucel (hydroxypropylcellulose) (HPC)
[2] = dose: 200.0 mg/kg/injection, schedule: Q04DX003 (ip), vehicle: Klucel (hydroxypropylcellulose) (HPC)
[3] = dose: 100.0 mg/kg/injection, schedule: Q04DX002 (ip), vehicle: Klucel (hydroxypropylcellulose) (HPC)
[4] = dose: 200.0 mg/kg/injection, schedule: Q04DX002 (ip), vehicle: Klucel (hydroxypropylcellulose) (HPC)
[5] = dose: 400.0 mg/kg/injection, schedule: Q04DX002 (ip), vehicle: Klucel (hydroxypropylcellulose) (HPC)
[6] = dose: 100.0 mg/kg/injection, schedule: Q04DX003 (ip), vehicle: saline with Tween-80
[7] = dose: 200.0 mg/kg/injection, schedule: Q04DX003 (ip), vehicle: saline with Tween-80
[8] = dose: 400.0 mg/kg/injection, schedule: Q04DX003 (ip), vehicle: saline with Tween-80
[9] = dose: 50.0 mg/kg/injection, schedule: Q01DX009 (ip), vehicle: saline with Tween-80
[10] = dose: 100.0 mg/kg/injection, schedule: Q01DX009 (ip), vehicle: saline with Tween-80
[11] = dose: 200.0 mg/kg/injection, schedule: Q01DX009 (ip), vehicle: saline with Tween-80
[12] = dose: 25.0 mg/kg/injection, schedule: Q01DX009 (ip), vehicle: saline with Tween-80
[13] = dose: 100.0 mg/kg/injection, schedule: Q01DX001 (ip), vehicle: saline with Tween-80

Measured: T/C

CC[CH2][Sn]([CH2]CC)([CH2]CC)[O][Sn]([CH2]CC)([CH2]CC)[CH2]CC
inactive: dose: 0.5 mg/kg/injection, schedule: Q01DX009 (ip), vehicle: saline 95 % of control | dose: 1.0 mg/kg/injection, schedule: Q01DX009 (ip), vehicle: saline 100 % of control | dose: 1.0 mg/kg/injection, schedule: Q04DX003 (ip), vehicle: saline with Tween-80 97 % of control | dose: 2.0 mg/kg/injection, schedule: Q01DX009 (ip), vehicle: saline 93 % of control | dose: 2.0 mg/kg/injection, schedule: Q04DX003 (ip), vehicle: saline with Tween-80 90 % of control

CCOC(=O)C(O)(C(=O)OCC)C1C(=O)c2ccccc2C1=O
inactive: dose: 50.0 mg/kg/injection, schedule: Q04DX003 (ip), vehicle: Klucel (hydroxypropylcellulose) (HPC) 91 % of control | [1] 98 % of control | [2] 99 % of control

NC(=O)NNc1ccccc1
inactive: [3] 94 % of control | [4] 94 % of control | [5] 90 % of control

O=S1(=O)CC(Cl)C1
inactive: dose: 50.0 mg/kg/injection, schedule: Q01DX001 (ip), vehicle: carboxymethylcellulose (CMC) 107 % of control | dose: 100.0 mg/kg/injection, schedule: Q01DX001 (ip), vehicle: carboxymethylcellulose (CMC) 89 % of control | dose: 200.0 mg/kg/injection, schedule: Q01DX001 (ip), vehicle: carboxymethylcellulose (CMC) 97 % of control

O=C(O)CCCCCCCCC1CC(F)(F)C(F)(F)S1 (centres undefined)
inactive: [6] 92 % of control | [7] 96 % of control | [8] 92 % of control

O=C1NCC(Nc2ccccc2Cl)C(=O)N1 (centres undefined)
inactive: dose: 100.0 mg/kg/injection, schedule: Q01DX Z (ip), vehicle: saline 96 % of control

CN(C(=O)N(C)c1ccccc1)c1ccccc1
inactive: dose: 100.0 mg/kg/injection, schedule: Q01DX009 (ip), vehicle: Klucel (hydroxypropylcellulose) (HPC) 102 % of control | [1] 103 % of control | dose: 200.0 mg/kg/injection, schedule: Q01DX009 (ip), vehicle: Klucel (hydroxypropylcellulose) (HPC) 96 % of control | [2] 103 % of control | dose: 400.0 mg/kg/injection, schedule: Q01DX009 (ip), vehicle: Klucel (hydroxypropylcellulose) (HPC) 95 % of control | dose: 400.0 mg/kg/injection, schedule: Q04DX003 (ip), vehicle: Klucel (hydroxypropylcellulose) (HPC) 103 % of control

O=C1C=C/C(=N/S(=O)(=O)c2ccccc2)c2ccccc21
inactive: dose: 6.0 mg/kg/injection, schedule: Q01DX009 (ip), vehicle: DMSO 106 % of control | dose: 12.0 mg/kg/injection, schedule: Q01DX009 (ip), vehicle: DMSO 88 % of control | dose: 25.0 mg/kg/injection, schedule: Q01DX009 (ip), vehicle: DMSO 86 % of control | dose: 25.0 mg/kg/injection, schedule: Q04DX003 (ip), vehicle: DMSO 94 % of control | dose: 50.0 mg/kg/injection, schedule: Q04DX003 (ip), vehicle: DMSO 89 % of control | dose: 100.0 mg/kg/injection, schedule: Q04DX003 (ip), vehicle: DMSO 106 % of control and 88 % of control

Cc1ccc(NC(=O)C(c2ccc(Cl)cc2)c2ccc(Cl)cc2)cc1
inactive: [3] 96 % of control | [4] 100 % of control | [5] 96 % of control

CS(=O)(=O)c1ccc(C(O)C(CO)NC(=O)C(Cl)Cl)cc1 (centres undefined)
inactive: [3] 96 % of control | [4] 93 % of control | [5] 90 % of control

c1ccc(Nc2nnc(Nc3ccccn3)c3ccccc23)nc1
inactive: [6] 95 % of control | [7] 93 % of control | [8] 96 % of control

O=C(O)C1C(=O)OC2CCCCC21 (centres undefined)
inactive: [9] 88 % of control | [10] 88 % of control | [11] 95 % of control

CC(=O)OC1/C=C/C(C)=C/CC(O)/C=C/C(C)=C/C(NC(=O)C(C)=O)C2(C)C(=O)OC(C1)C(C)C2=O (centres undefined)
inactive: dose: 25.0 mg/kg/injection, schedule: Q01DX001 (ip), vehicle: saline with Tween-80 102 % of control | [12] 101 % of control | dose: 50.0 mg/kg/injection, schedule: Q01DX001 (ip), vehicle: saline with Tween-80 94 % of control | [9] 104 % of control | [13] 97 % of control | [10] 103 % of control

COc1ccc(OC)c(NC(=O)NNC(=O)CNC(=O)Nc2ccc(Cl)c(Cl)c2)c1
inactive: dose: 12.5 mg/kg/injection, schedule: Q01DX009 (ip), vehicle: saline with Tween-80 95 % of control | [12] 95 % of control | [9] 91 % of control and 92 % of control | [10] 88 % of control | [11] 98 % of control

CCCCCCCCCCCCc1ccc(/C(C)=N/NC(=O)c2ccc[n+](C)c2)cc1
inactive: [13] 93 % of control

OC1CCCC/C1=C/C=C/c1ccccc1 (centres undefined)
inactive: [6] 89 % of control and 97 % of control | [7] 92 % of control | [8] 90 % of control and 94 % of control

CC(=O)NCC(O)C(O)C(O)C(/C=N/Nc1ccccc1)=N/Nc1ccccc1 (centres undefined)
inactive: dose: 50.0 mg/kg/injection, schedule: Q04DX002 (ip), vehicle: saline with Tween-80 88 % of control | dose: 100.0 mg/kg/injection, schedule: Q04DX002 (ip), vehicle: saline with Tween-80 92 % of control | dose: 200.0 mg/kg/injection, schedule: Q04DX002 (ip), vehicle: saline with Tween-80 98 % of control

O=[N+]([O-])c1ccc(/C=N/C(/N=C/c2ccc([N+](=O)[O-])cc2)c2ccc([N+](=O)[O-])cc2)cc1
inactive: dose: 75.0 mg/kg/injection, schedule: Q01DX009 (ip), vehicle: carboxymethylcellulose (CMC) 94 % of control | dose: 100.0 mg/kg/injection, schedule: Q04DX003 (ip), vehicle: carboxymethylcellulose (CMC) 97 % of control | dose: 150.0 mg/kg/injection, schedule: Q01DX009 (ip), vehicle: carboxymethylcellulose (CMC) 90 % of control | dose: 200.0 mg/kg/injection, schedule: Q04DX003 (ip), vehicle: carboxymethylcellulose (CMC) 95 % of control | dose: 300.0 mg/kg/injection, schedule: Q01DX009 (ip), vehicle: carboxymethylcellulose (CMC) 92 % of control | dose: 400.0 mg/kg/injection, schedule: Q04DX003 (ip), vehicle: carboxymethylcellulose (CMC) 92 % of control

CCC(=O)OC1(c2ccccc2)CCN(CCCC(=O)c2ccccc2)CC1
inactive: dose: 20.0 mg/kg/injection, schedule: Q04DX003 (ip), vehicle: Klucel (hydroxypropylcellulose) (HPC) 111 % of control | dose: 40.0 mg/kg/injection, schedule: Q04DX003 (ip), vehicle: Klucel (hydroxypropylcellulose) (HPC) 96 % of control

CCOC(=O)c1cnc(NN)nc1NCc1ccccc1
inactive: [9] 93 % of control | [10] 89 % of control | [6] 87 % of control | [11] 98 % of control | [7] 96 % of control

CCC1CN2C(=N1)c1ccccc1-c1cc(Br)ccc12 (centres undefined)
inactive: dose: 2.5 mg/kg/injection, schedule: Q01DX009 (ip), vehicle: Klucel (hydroxypropylcellulose) (HPC) 104 % of control | dose: 2.5 mg/kg/injection, schedule: Q04DX003 (ip), vehicle: Klucel (hydroxypropylcellulose) (HPC) 100 % of control | dose: 5.0 mg/kg/injection, schedule: Q01DX009 (ip), vehicle: Klucel (hydroxypropylcellulose) (HPC) 98 % of control | dose: 5.0 mg/kg/injection, schedule: Q04DX003 (ip), vehicle: Klucel (hydroxypropylcellulose) (HPC) 100 % of control | dose: 10.0 mg/kg/injection, schedule: Q01DX009 (ip), vehicle: Klucel (hydroxypropylcellulose) (HPC) 116 % of control | dose: 10.0 mg/kg/injection, schedule: Q04DX003 (ip), vehicle: Klucel (hydroxypropylcellulose) (HPC) 96 % of control
